Results on 7 compounds are retold here after US4317768A, “Dihydropyridine derivatives as stabilizers for vinyl chloride polymers” (priority 1977, dated 1982).

Assay [1] is described as follows: Comparison with 1,4-butanediol-β-aminocrotonate and methyl-β-aminocrotonate, rigid co-polymer, 185° C. As to conditions: 0.5 part. As to the method:
(a) Comparison with 1,4-butanediol-β-aminocrotonate and with methyl-β-aminocrotonate.
The following rigid co-polymer was prepared:
The sheets were heated in a ventilated oven at 185° C. and the following results were obtained: […]

A short description of assay [2]: Photostabilizing power, PVC plates exposed to the sun, GARDNER scale. As to the method:
(§1) The photostabilizing power of the compounds of the invention was studied by exposing to the sun polyvinyl chloride plates which had been stabilized either by a dihydropyridine of the invention or by 2-phenyl-indole, or again by 2-(3'-methoxy-4'-hydroxy)-indole. This last product is an extremely valuable thermostabilizer for thermoplastic resins and is described in British Pat. No. 1,489,685.
(§2) The resin given hereunder was prepared by mixing on cylinders at 160° C.:
(§3) The plates of stabilized polyvinyl chloride, together with a plate which had not been stabilized, were stood in the sun under the same conditions and at the same time. Their colour was measured after 6 hours and 12 hours of exposure.
(§4) The coloration of the plates was determined according to two methods:
On the plates themselves, following the GARDNER scale, as in the section on thermostability,
The sign + means that the coloration lies between the lower unit and the upper half-unit. Thus, 3+ means that the coloration lies between 3 and 3.5. Similarly, the sign - means that the coloration lies between the lower half-unit and the upper unit.

Assay [3] is described as follows: Photostabilizing power, tetrahydrofuran solution of plates exposed to the sun, French Pharmacopeia. As to the method: as §1, §2, §3, §4
On a solution of these plates in tetrahydrofuran, the coloration of th solution being measured according to the French Pharmacopeia (IXth edition, II-338).

A short description of assay [4]: Static thermostability (GARDNER method), rigid PVC sheets, 210° C., 0.3 part stabilizer. Particulars: for coloration of the resins, in words: 0 to 3 minutes. As to the method: (§5) This study was carried out according to the GARDNER method, described in British Pat. No. 1,489,685.
(§6) The reference substance was 2-phenyl-indole, a well-known and widely used stabilizer.
(§7) The stabilizer (dihydropyridine or 2-phenyl-indole) and the other usual ingredients were mixed with powdered vinyl resins and the mixtures were calendered at a temperature of 160° C. to give rigid sheets.
(§8) The sheets were then heated in a thermostated oven (185° C. or 210° C.) for different intervals of time until incipient carbonization.
(§9) The coloration of the samples was compared to a standard scale of coloration, known as the GARDNER scale and was expressed in terms of the reference figures of the GARDNER scale.
(§10) This study was carried out with the following resin:
(§11) Polyvinyl chloride resin
(§12) SL 2016 is a solution of zinc-2-ethyl-hexanoate in a mixture of hydrocarbons boiling between 158° C. and 184° C.
The first trial was carried out at 210° C. with a resin containing 0.3 part by weight of stabilizer, the sheets being removed from the oven every three minutes over a period of 21 minutes.

Assay [5] is described as follows: Photostabilizing power, sheets exposed to the sun, co-polymer (a). As to the method:
The sheets were exposed to the sun and their colorations were also determined according to the GARDNER method.

A short description of assay [6]: Comparison with stabilizer G1, rigid co-polymer, 0.5 part, 185° C. The text has this: (b) Comparison with stabilizer G1
Stabilizer G1 is a mixture of 1,4-butanediol-β-aminocrotonate and of β-aminocrotonate of alcohols containing from 16 to 18 carbon atoms.

The nature of assay [7]: Static thermostability (GARDNER method), rigid PVC sheets, 185° C., 0.3 part stabilizer. As to the method: as §5, §6, §7, §8, §9, §10, §11, §12
A second trial was performed at a temperature of 185° C., with a resin containing 0.3 part of stabilizer, the samples being removed from the oven every 6 minutes over a period of 24 minutes, then every 3 minutes until the 42nd minute (or until carbonization).

A short description of assay [8]: Static thermostability (GARDNER method), rigid PVC sheets, 185° C., equimolecular quantities. Particulars: 1.55×10^-3 mol. As to the method: as §5, §6, §7, §8, §9, §10, §11, §12
Finally, a trail was performed at 185° C., with resins containing equimolecular quantities of the dihydropyridines or of 2-phenyl-indole, namely 1.55×10^-3 mol. In this case too, the samples were removed from the oven every 6 minutes over a period of 24 minutes and then every 3 minutes until the 42nd minute (or until carbonization).

As for `COC(=O)/C=C(/C)N` [Methyl-β-aminocrotonate, methyl-β-aminocrotonate, reference compound], the “coloration, GARDNER scale” value in assay [1] (0 min) came to 1; in assay [1] (2 min), 1; in assay [1] (4 min), 5; in assay [1] (6 min), 12; in assay [1] (8 min), 14; in assay [1] (10 min), 17. The “coloration, GARDNER scale” value in assay [1] (12 min) turned out to be 18.

For `COc1cc(-c2cc3ccccc3[nH]2)ccc1O` [2-(3'-Methoxy-4'-hydroxy-phenyl)-indole, reference compound], the results for the “Coloration of the plates GARDNER” value in assay [2] (exposure to sun 0), in assay [2] (exposure to sun 6h) and in assay [2] (exposure to sun 12h) were 1, 4 and 8, respectively. In addition, the “Coloration of the plates FRENCH PHARMACOPEIA” value in assay [3] (exposure to sun 6h) is recorded as “B4 to JB4”; in assay [3] (exposure to sun 12h) it was “B3 to JB3”.

Regarding `COC(=O)C1=C(C)NC(C)=C(C(=O)OC)C1C` [Compound 29, 2,4,6-Trimethyl-3,5-dicarbomethoxy-1,4-dihydropyridine], the figures for the “Coloration of the plates GARDNER” value in assay [2] (exposure to sun 6h) and in assay [2] (exposure to sun 12h) were 3 and 5, respectively. Also, the “coloration, GARDNER scale” value in assay [4] (0 min) is on record as 1; in assay [4] (3 min), 2; in assay [4] (6 min), 3; in assay [4] (9 min), 6; in assay [4] (12 min) it was 7; in assay [4] (15 min), 10. In addition, the entries for the “coloration, GARDNER scale” value in assay [4] (18 min) and in assay [4] (21 min) were 10.5 and “Burnt”, respectively. The “Coloration of the plates FRENCH PHARMACOPEIA” value in assay [3] (exposure to sun 0) was “JV6”; in assay [3] (exposure to sun 6h) it was “JV5”; in assay [3] (exposure to sun 12h), “JV4”.

On to `CCCCOCCOC(=O)C1=C(C)NC(C)=C(C(=O)OCCOCCCC)C1` [Compound 27], for which the “coloration, GARDNER scale” value in assay [4] (0 min) came to 1; in assay [4] (3 min), 1; in assay [4] (6 min) it was 1; in assay [4] (9 min), 2; in assay [4] (12 min) it was 5; in assay [4] (15 min) it was 14. Also, the “coloration, GARDNER scale” value in assay [4] (18 min) is “Burnt”; in assay [6] (0 min) it was 1; in assay [6] (2 min), 1; in assay [6] (4 min), 4; in assay [6] (6 min) it was 7; in assay [6] (8 min), 12.5. Moreover, in assay [6] (10 min), the “coloration, GARDNER scale” value is recorded as 17. Further, the “Colour in GARDNER degrees” value stood at 2 GARDNER degrees in assay [5] (After 24 hours) and 1 GARDNER degrees in assay [5] (Time 0).

`CC(N)=CC(=O)OCCCCOC(=O)C=C(C)N` [1,4-butanediol-β-aminocrotonate, reference compound]: the “coloration, GARDNER scale” value came out at 1 in assay [1] (0 min); 1 in assay [1] (2 min); 4 in assay [1] (4 min); 10 in assay [1] (6 min); 13 in assay [1] (8 min); 15 in assay [1] (10 min). Moreover, the “coloration, GARDNER scale” value in assay [1] (12 min) was determined as 18.

As for `CC1=C(C(=O)OCc2ccccc2Cl)CC(C(=O)OCc2ccccc2Cl)=C(C)N1` [Compound 5, 2,6-Dimethyl-3,5-di-(2'-carbochloro-benzyloxy)-1,4-dihydropyridine], the “coloration, GARDNER scale” value was found to be 1 in assay [7] (0 min); 1 in assay [7] (6 min); 2 in assay [7] (12 min); 9 in assay [7] (18 min); 11 in assay [7] (24 min); 11 in assay [7] (27 min). Also, the “coloration, GARDNER scale” value in assay [7] (30 min) is 13; in assay [7] (33 min), 14; in assay [7] (36 min) it was 14; in assay [7] (39 min), “Burnt”; in assay [4] (0 min), 1; in assay [4] (3 min), 1. Further, the “coloration, GARDNER scale” value in assay [4] (6 min) is 2; in assay [4] (9 min) it was 3; in assay [4] (12 min) it was 6; in assay [4] (15 min), 10.5; in assay [4] (18 min), “Burnt”; in assay [8] (0 min), 1. Also, the “coloration, GARDNER scale” value in assay [8] (6 min) is 1; in assay [8] (12 min), 1; in assay [8] (18 min), 5; in assay [8] (24 min) it was 10; in assay [8] (27 min) it was 11; in assay [8] (30 min), 13. Besides, the “coloration, GARDNER scale” value in assay [8] (33 min) is on record as 14; in assay [8] (36 min), 15; in assay [8] (39 min), “Burnt”. In addition, in assay [4], the “coloration of the resins, in words” value is listed as “considerably less”.

On to `COc1ccc(COC(=O)C2=C(C)NC(C)=C(C(=O)OCc3ccc(OC)cc3)C2)cc1` [Compound 4], for which the “coloration, GARDNER scale” value came out at 1 in assay [7] (0 min); 1 in assay [7] (6 min); 2 in assay [7] (12 min); 8 in assay [7] (18 min); 13 in assay [7] (24 min); 14 in assay [7] (27 min). In addition, the “coloration, GARDNER scale” value is recorded as 17 in assay [7] (30 min); 18 in assay [7] (33 min); “Burnt” in assay [7] (36 min); 1 in assay [4] (0 min); 1 in assay [4] (3 min); 2 in assay [4] (6 min). Also, the “coloration, GARDNER scale” value in assay [4] (9 min) is reported as 4; in assay [4] (12 min), 6; in assay [4] (15 min) it was 11; in assay [4] (18 min), “Burnt”; in assay [8] (0 min), 1; in assay [8] (6 min), 1. For the same compound, the “coloration, GARDNER scale” value in assay [8] (12 min) is 1; in assay [8] (18 min), 4; in assay [8] (24 min), 6; in assay [8] (27 min) it was 8; in assay [8] (30 min), 11; in assay [8] (33 min), 15. In addition, in assay [8] (36 min), the “coloration, GARDNER scale” value is reported as “Burnt”. Also, in assay [4], the “coloration of the resins, in words” value is recorded as “considerably less”.
